Measurements reported in publication PMC7402526, “An in vitro quantitative systems pharmacology approach for deconvolving mechanisms of drug-induced, multilineage cytopenias” (PLoS Computational Biology, 2020).

Tests used:
[1] = tested on: lymphocyte progenitors (LymP); test: MLTA, LymP: concentration-response and QSP model fit; type: cell-based, human; conditions: Homo sapiens, Lymphocyte, 144 h
Summary of the method: (§1)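 Freeze-thawed primary human bone marrow CD34+ cells were grown in SFEM II with a multi-lineage cytokine cocktail, drug added day 0, six days at 37°C. Lineage counts came from 17-parameter flow with TruCount beads, vehicle-normalized per donor, then fitted by an Emax-based QSP model.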

MK cells (MK-lin) = test: MLTA, MK: concentration-response and QSP model fit; type: cell-based, human; conditions: Homo sapiens, 144 h
Summary of the method: as §1

monocytes (monocyte-lin) = test: MLTA, Mono: concentration-response and QSP model fit; type: cell-based, human; conditions: Homo sapiens, Monocyte, 144 h
Summary of the method: as §1

[2] = tested on: granulocyte-macrophage progenitor (GMPs); test: MLTA, GMPs: concentration-response and QSP model fit; type: cell-based, human; conditions: Homo sapiens, 144 h, 6 days, normalized to vehicle control, read-out: GMPs normalized cell count
Summary of the method: as §1

[3] = tested on: total dead cells (totalDeadCells); test: MLTA, total dead cells concentration-response; type: cell-based; conditions: Homo sapiens, 144 h, 6 days, normalized to vehicle control, read-out: total_dead normalized cell count
Procedure: A custom optimized cytokine cocktail was developed using commercially available cytokines (Peprotech, New Jersey) to facilitate simultaneous multi-lineage differentiation and self-renewal of freeze-thawed primary human bone marrow-derived CD34+ cells in SFEM II media (cells and media from StemCell Technologies, Vancouver). Cultures were carried out in ultra-low attachment 96-well plates (Corning, New York) with test article added on day 0 and cultured at 37°C, 85% relative humidity, and 5% CO2 for six days before interrogating drug impact via 17-parameter flow cytometry.
The flow cytometry panel used to define hematopoietic subsets was composed of CD34-PECy7, CD90-PECY5, CD38-AF488, CD371-PE, CD45Ra-BV421, CD14-BV605, CD42b-AF647, CD10-PEDazzle594, CD235a-PerCPCy5.5 (BioLegend, California), CD15-BUV395, CD41a-APCH7, CD71-BV786 (BD Biosciences, California), and DAPI for dead cell exclusion (ThermoFisher, California). In short, Day 6 cells were harvested, FcR-blocked (FcR binding inhibitor, ThermoFisher), surface-stained, then analyzed in a buffer containing TruCount Control Beads using a BD LSR Fortessa SORP fitted with a high-throughput sampler (BD Biosciences, California). Data was analyzed in Diva 6.0.2 and exported to CSV where after all cell data was transformed to cell per mL then normalized on a per-donor basis to untreated control wells to determine drug impact.
Donor material was collected and cultured as described above. The number of replicate donor samples per drug ranged from 2–7 and varied per drug (S1 Table). Drug treatment was added at time 0 and cells were maintained in culture for 6 days. Concentrations tested for each drug compound are contained in S1 Table. Concentrations were selected to span a range that is clinically useful. Following treatment, cell populations were measured using flow cytometry. We extracted cell counts from flow cytometry data, normalized to bead counts, and corrected for well volume.
Each well was normalized to the average of six vehicle control wells. For drugs that were tested across multiple runs of the assay, vehicle-normalized donor data were pooled, and we used the average of these pooled data for further modeling. Normalized data used as model inputs are included in S1 Table.

granulocytes (Gran-lin) = test: MLTA, Gran: concentration-response and QSP model fit; type: cell-based, human; conditions: Homo sapiens, 144 h
Summary of the method: as §1

[4] = tested on: hematopoietic stem cells (HSCs); test: Multi-lineage toxicity assay (MLTA), HSCs: concentration-response and QSP model fit; type: cell-based, human; set-up: EmaxAP,HSC / EmaxT,HSC / Emax_drug_HSC: unitless, 0–2; ≤1 anti-proliferative, >1 adds cell killing
Summary of the method: as §1

B cells (B-lin) = test: MLTA, B-lin: concentration-response and QSP model fit; type: cell-based, human; conditions: Homo sapiens, B-cell, 144 h
Summary of the method: as §1

CCc1cnn2c(NCc3ccc[n+]([O-])c3)cc(N3CCCC[C@H]3CCO)nc12 [dinaciclib]
activity at 0.0002 µM ([1]; dose 0.2 nM, 6 days, normalized to vehicle control, read-out: LymP normalized cell count): 89.4% | activity at 0.001 µM ([1]; dose 1 nM, 6 days, normalized to vehicle control, read-out: LymP normalized cell count): 105% | activity at 0.005 µM ([1]; dose 5 nM, 6 days, normalized to vehicle control, read-out: LymP normalized cell count): 99.3% | activity at 0.025 µM ([1]; dose 25 nM, 6 days, normalized to vehicle control, read-out: LymP normalized cell count): 38.3% | activity at 0.1 µM ([1]; dose 100 nM, 6 days, normalized to vehicle control, read-out: LymP normalized cell count): 3.05% | activity at 0.5 µM ([1]; dose 500 nM, 6 days, normalized to vehicle control, read-out: LymP normalized cell count): 7.81% | activity at 2.5 µM ([1]; dose 2500 nM, 6 days, normalized to vehicle control, read-out: LymP normalized cell count): 2.53% | Emax ([1]; parameter from QSP model fitting, read-out: Emax_drug_LymP): 115% | activity at 0.0002 µM (MK cells (MK-lin); dose 0.2 nM, 6 days, normalized to vehicle control, read-out: MK normalized cell count): 90.3% | activity at 0.001 µM (MK cells (MK-lin); dose 1 nM, 6 days, normalized to vehicle control, read-out: MK normalized cell count): 111% | activity at 0.005 µM (MK cells (MK-lin); dose 5 nM, 6 days, normalized to vehicle control, read-out: MK normalized cell count): 71.8% | activity at 0.025 µM (MK cells (MK-lin); dose 25 nM, 6 days, normalized to vehicle control, read-out: MK normalized cell count): 11.8% | activity at 0.1 µM (MK cells (MK-lin); dose 100 nM, 6 days, normalized to vehicle control, read-out: MK normalized cell count): 0.294% | activity at 0.5 µM (MK cells (MK-lin); dose 500 nM, 6 days, normalized to vehicle control, read-out: MK normalized cell count): 0.526% | activity at 2.5 µM (MK cells (MK-lin); dose 2500 nM, 6 days, normalized to vehicle control, read-out: MK normalized cell count): 0.425% | Emax (MK cells (MK-lin); parameter from QSP model fitting, read-out: Emax_drug_MK): 33.1% | activity at 0.0002 µM (monocytes (monocyte-lin); dose 0.2 nM, 6 days, normalized to vehicle control, read-out: Mon normalized cell count): 90.7% | activity at 0.001 µM (monocytes (monocyte-lin); dose 1 nM, 6 days, normalized to vehicle control, read-out: Mon normalized cell count): 106% | activity at 0.005 µM (monocytes (monocyte-lin); dose 5 nM, 6 days, normalized to vehicle control, read-out: Mon normalized cell count): 69.5% | activity at 0.025 µM (monocytes (monocyte-lin); dose 25 nM, 6 days, normalized to vehicle control, read-out: Mon normalized cell count): 8.55% | activity at 0.1 µM (monocytes (monocyte-lin); dose 100 nM, 6 days, normalized to vehicle control, read-out: Mon normalized cell count): 0.496% | activity at 0.5 µM (monocytes (monocyte-lin); dose 500 nM, 6 days, normalized to vehicle control, read-out: Mon normalized cell count): 0.834% | activity at 2.5 µM (monocytes (monocyte-lin); dose 2500 nM, 6 days, normalized to vehicle control, read-out: Mon normalized cell count): 0.535% | Emax (monocytes (monocyte-lin); parameter from QSP model fitting, read-out: Emax_drug_Mono): 48.2% | activity at 0.0002 µM ([2]; dose 0.2 nM): 87% | activity at 0.001 µM ([2]; dose 1 nM): 111% | activity at 0.005 µM ([2]; dose 5 nM): 87.6% | activity at 0.025 µM ([2]; dose 25 nM): 40.3% | activity at 0.1 µM ([2]; dose 100 nM): 0.755% | activity at 0.5 µM ([2]; dose 500 nM): 1.71% | activity at 2.5 µM ([2]; dose 2500 nM): 0.744% | activity at 0.0002 µM ([3]; dose 0.2 nM): 108% | activity at 0.001 µM ([3]; dose 1 nM): 106% | activity at 0.005 µM ([3]; dose 5 nM): 78.9% | activity at 0.025 µM ([3]; dose 25 nM): 34.8% | activity at 0.1 µM ([3]; dose 100 nM): 38.7% | activity at 0.5 µM ([3]; dose 500 nM): 34.1% | activity at 2.5 µM ([3]; dose 2500 nM): 39.6% | activity at 0.0002 µM (granulocytes (Gran-lin); dose 0.2 nM, 6 days, normalized to vehicle control, read-out: Gran normalized cell count): 96.8% | activity at 0.001 µM (granulocytes (Gran-lin); dose 1 nM, 6 days, normalized to vehicle control, read-out: Gran normalized cell count): 120% | activity at 0.005 µM (granulocytes (Gran-lin); dose 5 nM, 6 days, normalized to vehicle control, read-out: Gran normalized cell count): 121% | activity at 0.025 µM (granulocytes (Gran-lin); dose 25 nM, 6 days, normalized to vehicle control, read-out: Gran normalized cell count): 32.8% | activity at 0.1 µM (granulocytes (Gran-lin); dose 100 nM, 6 days, normalized to vehicle control, read-out: Gran normalized cell count): 0.0467% | activity at 0.5 µM (granulocytes (Gran-lin); dose 500 nM, 6 days, normalized to vehicle control, read-out: Gran normalized cell count): 0.0554% | activity at 2.5 µM (granulocytes (Gran-lin); dose 2500 nM, 6 days, normalized to vehicle control, read-out: Gran normalized cell count): 0.0385% | Emax (granulocytes (Gran-lin); parameter from QSP model fitting, read-out: Emax_drug_Gran): 201% | activity at 0.0002 µM ([4]; Homo sapiens, Hematopoietic stem cell, 144 h, dose 0.2 nM, 6 days, normalized to vehicle control, read-out: HSCs normalized cell count): 89.5% | activity at 0.001 µM ([4]; Homo sapiens, Hematopoietic stem cell, 144 h, dose 1 nM, 6 days, normalized to vehicle control, read-out: HSCs normalized cell count): 106% | activity at 0.005 µM ([4]; Homo sapiens, Hematopoietic stem cell, 144 h, dose 5 nM, 6 days, normalized to vehicle control, read-out: HSCs normalized cell count): 115% | activity at 0.025 µM ([4]; Homo sapiens, Hematopoietic stem cell, 144 h, dose 25 nM, 6 days, normalized to vehicle control, read-out: HSCs normalized cell count): 61.2% | activity at 0.1 µM ([4]; Homo sapiens, Hematopoietic stem cell, 144 h, dose 100 nM, 6 days, normalized to vehicle control, read-out: HSCs normalized cell count): 1.89% | activity at 0.5 µM ([4]; Homo sapiens, Hematopoietic stem cell, 144 h, dose 500 nM, 6 days, normalized to vehicle control, read-out: HSCs normalized cell count): 5.17% | activity at 2.5 µM ([4]; Homo sapiens, Hematopoietic stem cell, 144 h, dose 2500 nM, 6 days, normalized to vehicle control, read-out: HSCs normalized cell count): 1.3% | Emax ([4]; Homo sapiens, Hematopoietic stem cell, 144 h, parameter from QSP model fitting, read-out: Emax_drug_HSC): 103% | EmaxAP,HSC ([4]; anti-proliferation component, min(1, EmaxT)): 1.000 | activity at 0.0002 µM (B cells (B-lin); dose 0.2 nM, 6 days, normalized to vehicle control, read-out: B-lin normalized cell count): 81.8% | activity at 0.001 µM (B cells (B-lin); dose 1 nM, 6 days, normalized to vehicle control, read-out: B-lin normalized cell count): 90.4% | activity at 0.005 µM (B cells (B-lin); dose 5 nM, 6 days, normalized to vehicle control, read-out: B-lin normalized cell count): 90.4% | activity at 0.025 µM (B cells (B-lin); dose 25 nM, 6 days, normalized to vehicle control, read-out: B-lin normalized cell count): 11.7% | activity at 0.1 µM (B cells (B-lin); dose 100 nM, 6 days, normalized to vehicle control, read-out: B-lin normalized cell count): 0.127% | activity at 0.5 µM (B cells (B-lin); dose 500 nM, 6 days, normalized to vehicle control, read-out: B-lin normalized cell count): 0.514% | activity at 2.5 µM (B cells (B-lin); dose 2500 nM, 6 days, normalized to vehicle control, read-out: B-lin normalized cell count): 0.106% | Emax (B cells (B-lin); parameter from QSP model fitting, read-out: Emax_drug_B): 77.4%
